Measurements taken from patent publication US20040110718A1, “Anti-HCV nucleoside derivatives” (priority 2000, published 2004).

System: HCV replicon RNA replication
Experiment: HCV replicon assay, Renilla luciferase reporter
Type: cell-based
Details: Hepatitis C virus, Huh-7, 72 h; Renilla luciferase HCV replicon cells (2209-23, Huh7), three days incubation; concentration reducing luciferase activity/replicon level by 50%

Structure (SMILES) | IC50
Nc1ccn([C@@H]2C[C@H](CO)[C@@H](O)[C@H]2O)c(=O)n1 [Example 246, 4-amino-1(R)-(2(S),3(R)-dihydroxy-4(R)-hydroxymethyl-cyclopentyl)-1H-pyrimidin-2-one] | 0.4 µM
Nc1ccn([C@@H]2O[C@H](CO)[C@H](F)[C@H]2O)c(=O)n1 [Example 249, 1-(3-deoxy-3-fluoro-β-D-xylofuranosyl)cytosine] | 10.4 µM
CCNc1ncnc2c1ncn2[C@@H]1O[C@H](CO)[C@@H](O)[C@H]1O [Example 252, 6-ethylamino-9-(β-D-ribofuranosyl)purine] | 14 µM
Nc1ccn([C@@H]2O[C@H](CO)[C@H](O)[C@H]2O)c(=O)n1 [Example 247, 1-(β-D-xylofuranosyl)cytosine] | 3.7 µM
CCCNc1ncnc2c1ncn2[C@@H]1O[C@H](CO)[C@@H](O)[C@H]1O [Example 253, 6-propylamino-9-(β-D-ribofuranosyl)purine] | 7 µM

System: HCV replicon RNA replication
Experiment: HCV replicon assay (quantification of replicon RNA, Northern blot / Taqman kinetic PCR)
Type: cell-based
Details: Hepatitis C virus, Huh-7, 72 h
Method: Assay Method: The activity of the compounds was assayed using an adaptation of the method reported by Lohmann et al [V. Lohmann et al., Science, 1999, 285, 110-113].
The HCV replicon-containing cell line is used for the identification of small molecules that are able to inhibit the replication of the replicon RNA. Since the replicon RNA replication mimics the replication of the HCV RNA in infected hepatocytes, it is believed that those small molecules that have the above property are interesting for further development as anti-HCV drugs.
The inhibition of the HCV replicon RNA replication will lead to a decrease of the replicon RNA in the cell, which can be measured using a method that specifically quantifies this RNA.
Northern blot: One method for quantification of this RNA uses the standard Northern blot known to any person skilled in the art.
Kinetic PCR: A second assay for the quantification of replicon RNA is based on the amplification of the replicon RNA that remains in the cell, after incubation of the cells with a proper concentration of the small molecules. This method involves the reverse transcription of the replicon RNA to the corresponding complementary DNA (cDNA), followed by amplification of the cDNA using the Taqman Kinetic PCR technology (PE Biosystems). This consists of hybridisation of the cDNA with a complementary reporter oligonucleotide (probe), containing a combined fluorescent dye and a quencher dye. Amplification of the DNA sequence containing the hybridised reporter probe, using flanking oligonucleotide primers will lead to the separation of the fluorescent dye from the quencher dye. This will result in an increase of the fluorescence during each amplification cycle.
The neomycin phosphotransferase gene sequence that is present in the replicon RNA was chosen for amplification using specifically designed oligonucleotide primers. To control for (a) cell number that can vary depending on the toxicity or cytostatic effect of the small molecules, and (b) for errors during total RNA extraction, amplification of the host β-actin gene is used for normalisation.
The accumulation of the PCR products during the reaction is monitored directly by measuring the increase in fluorescence of the reporter dye. The amount of HCV replicon RNA (and β-actin RNA) originally present in the total RNA extracted from the cells is then expressed as a threshold cycle, e.g. the cycle at which there is a statistically significant increase in the fluorescence above the background.
For this procedure, HCV replicon-containing human hepatoma Huh7 cells (9-13) in growth medium (DMEM) containing 5% FCS are plated in a 96-well plate at 5×10^3 cells per well, and the plate incubated overnight. 24 hours later, different dilutions in 0.1 ml growth medium of chemical compounds were added to the wells, and the plate further incubated at 37° C. for three days. Total RNA coming from each well is extracted using the RNeasy™ procedure (Qiagen manufacturer instructions), and the total RNA is eluted in a final volume of 0.13 ml. Next, a 2 μl sample of the total RNA is used for convertion into cDNA using a reverse transcription (RT) step. A RT mastermix containing 1 μl 10× Taqman RT buffer, 2.2 μl 25 mM MgCl2 (5.5 mM final conc.), 2 μl dNTP mix (500 μM each), 0.5 μl random hexamer primers (2.5 μM), 0.2 μl RNase inhibitor (0.4 u/μl ), 0.25 μl RT (1.25 u/μl ), 1.85 μl H2O, was distributed in a 96-well plate and 2 μl total RNA was added to each well.
The RT reaction is performed by incubation of the plate 10 min at 25° C., 30 min at 48° C., 5 min at 95° C. and cooling to 4° C. The cDNA samples are then stored at −20° C. or directly used for the PCR reaction. […]

Structure (SMILES) | IC50
OC[C@H]1O[C@@H](n2cnc3c(Cl)ncnc32)[C@H](O)[C@@H]1O [Example 19, 6-Chloro-9-(β-D-ribofuranosyl)purine] | 14 µM
OC[C@H]1O[C@@H](n2cnc3c(-c4ccsc4)ncnc32)[C@H](O)[C@@H]1O [Example 181, 9-(β-D-Ribofuranosyl)-6-(3-thienyl)purine] | 0.05 µM
C=CCNc1ncnc2c1ncn2[C@@H]1O[C@H](CO)[C@@H](O)[C@H]1O [Example 80, 6-(2-Propenyl)amino-9-(β-D-ribofuranosyl)purine] | 5.7 µM

Same assay, conditions: Hepatitis C virus, Huh-7, 72 h; HCV replicon-containing human hepatoma Huh7 cells (9-13), three days incubation; concentration reducing replicon RNA levels by 50%; read-out: IC50

Structure (SMILES) | IC50
OC[C@H]1O[C@@H](n2cnc3c(-c4ccccc4)ncnc32)[C@H](O)[C@@H]1O [Example 182, 6-Phenyl-9-(β-D-ribofuranosyl)purine] | 0.1 µM
Nc1c2ncn([C@@H]3O[C@H](CO)[C@@H](O)[C@H]3O)c2nc[n+]1[O-] [Example 7, Adenosine-1-oxide] | 2 µM

System: not given
Experiment: not given
Details: not given

Structure (SMILES) | melting point
OC[C@H]1O[C@@H](n2cnc3c(-c4ccccc4)ncnc32)[C@H](O)[C@@H]1O [Example 182, 6-Phenyl-9-(β-D-ribofuranosyl)purine] | 224 to 225 °C
OC[C@H]1O[C@@H](n2cnc3c(-c4ccsc4)ncnc32)[C@H](O)[C@@H]1O [Example 181, 9-(β-D-Ribofuranosyl)-6-(3-thienyl)purine] | 166 to 167 °C (dec.)
